The text below walks through data of patent US20110071108A1, “Beta-Cyclodextrin Derivatives as Antibacterial Agents” (Pinnacle Pharmaceuticals, Inc., priority 2005, published 2011).

What all share (assay): Bacterial panel testing, MIC by broth microdilution
Common to all, as to assay type: cell-based
Common to all, as to conditions: 20-24 hours growth
(In general: In broth dilution the organism is exposed to a series of concentrations in liquid medium.)

One assay concerns Staphylococcus aureus. The method, then:
(§1) One to three colonies of bacteria were picked from an Mueller-Hinton or Brain Heart infusion agar plate (depending on the bacterial strain) and transferred to 3 ml Mueller-Hinton broth or Brain Heart infusion media (depending on the bacterial strain). Bacteria were allowed to grow for 2-4 hours in an incubator at 37° C. Bacteria-inoculated media were dispersed in 0.9% saline to match McFarland standard density. 100 μl standardized inoculation was added to 20 ml media (dilution 1). 10 μl of the new dilution was added to 990 μl media and mixed (dilution 2). 10 μl of dilution 2 was spread on an agar plate and allowed to grow overnight. Colonies were then […].
(§2) Test compound was diluted to 10 μg/ml in dimethylsulfoxide. Four μl of Rifampicin antibiotic was loaded into row H, column 2.
(§3) All wells were then filled with 100 μl of inoculated media (dilution 1 from Example 1). A further 100 μl of the inoculated media was then added to column 2 and the contents are pipetted to thoroughly mix the contents. A full 100 μl was then transferred from column 2 and mixed into column 3. This process was continued from left to right until columns 2-12 were serially diluted, and the final draw from column 12 was discarded. The plates were covered with 3M sealing tape (plates containing Enterococcus faecium were sealed with Air Pore sealing tape) and allowed to grow for 20-24 hours. Cytotoxic wells (clear wells) are then scored and the potency of the compound was determined.

A further assay deals with Salmonella choleraesuis. How it is done: as §1, §2, §3
A further assay deals with Enterococcus faecium. The method, then:
as §1, §2, §3

For a further assay, the system named is Eschericia coli. How it is done: as §1, §2, §3
For the next assay, the system named is Pseudomonas aeruginosa. The method, then:
as §1, §2, §3

Each structure is given as a SMILES string.

As to `C[C@H](N)C(=O)NC[C@H]1O[C@@H]2O[C@H]3[C@H](O)[C@@H](O)[C@@H](O[C@H]4[C@H](O)[C@@H](O)[C@@H](O[C@H]5[C@H](O)[C@@H](O)[C@@H](O[C@H]6[C@H](O)[C@@H](O)[C@@H](O[C@H]7[C@H](O)[C@@H](O)[C@@H](O[C@H]8[C@H](O)[C@@H](O)[C@@H](O[C@H]1[C@H](O)[C@H]2O)O[C@@H]8CNC(=O)[C@H](C)N)O[C@@H]7CNC(=O)[C@H](C)N)O[C@@H]6CNC(=O)[C@H](C)N)O[C@@H]5CNC(=O)[C@H](C)N)O[C@@H]4CNC(=O)[C@H](C)N)O[C@@H]3CNC(=O)[C@H](C)N.Cl.Cl.Cl.Cl.Cl.Cl.Cl`, the “MIC SA” value in the assay with Staphylococcus aureus is more than 200 µg/mL. Further, in the assay with Salmonella choleraesuis, the “MIC SC” value is more than 200 µg/mL. In the assay with Enterococcus faecium, the “MIC EF” value was more than 200 µg/mL. Also, in the assay on Eschericia coli, the “MIC EC” value was more than 200 µg/mL. In addition, the “MIC PA” value in the assay on Pseudomonas aeruginosa was more than 200 µg/mL.
On to `Cl.Cl.Cl.Cl.Cl.Cl.Cl.N=C(N)NCCCSC[C@H]1O[C@@H]2O[C@H]3[C@H](O)[C@@H](O)[C@@H](O[C@H]4[C@H](O)[C@@H](O)[C@@H](O[C@H]5[C@H](O)[C@@H](O)[C@@H](O[C@H]6[C@H](O)[C@@H](O)[C@@H](O[C@H]7[C@H](O)[C@@H](O)[C@@H](O[C@H]8[C@H](O)[C@@H](O)[C@@H](O[C@H]1[C@H](O)[C@H]2O)O[C@@H]8CSCCCNC(=N)N)O[C@@H]7CSCCCNC(=N)N)O[C@@H]6CSCCCNC(=N)N)O[C@@H]5CSCCCNC(=N)N)O[C@@H]4CSCCCNC(=N)N)O[C@@H]3CSCCCNC(=N)N`, for which the “MIC SA” value with Staphylococcus aureus was more than 200 µg/mL. Further, the “MIC SC” value with Salmonella choleraesuis is more than 200 µg/mL. Further, the “MIC EF” value with Enterococcus faecium is more than 200 µg/mL. The “MIC EC” value with Eschericia coli is more than 200 µg/mL. Moreover, the “MIC PA” value in the assay on Pseudomonas aeruginosa was more than 200 µg/mL.
`O=C(C[n+]1ccccc1)NCC1OC2OC3C(CNC(=O)C[n+]4ccccc4)OC(OC4C(CNC(=O)C[n+]5ccccc5)OC(OC5C(CNC(=O)C[n+]6ccccc6)OC(OC6C(CNC(=O)C[n+]7ccccc7)OC(OC7C(CNC(=O)C[n+]8ccccc8)OC(OC8C(CNC(=O)C[n+]9ccccc9)OC(OC1C(O)C2O)C(O)C8O)C(O)C7O)C(O)C6O)C(O)C5O)C(O)C4O)C(O)C3O.[Cl-].[Cl-].[Cl-].[Cl-].[Cl-].[Cl-].[Cl-]` (centres unmarked): the “MIC SA” value against Staphylococcus aureus is more than 200 µg/mL. In the assay on Salmonella choleraesuis, the “MIC SC” value is more than 200 µg/mL. In the assay on Enterococcus faecium, the “MIC EF” value is more than 200 µg/mL. In the assay with Eschericia coli, the “MIC EC” value was more than 200 µg/mL. Also, in the assay on Pseudomonas aeruginosa, the “MIC PA” value was more than 200 µg/mL.
For `Cl.Cl.Cl.Cl.Cl.Cl.Cl.O=C(CNCc1ccccc1)NCC1OC2OC3C(CNC(=O)CNCc4ccccc4)OC(OC4C(CNC(=O)CNCc5ccccc5)OC(OC5C(CNC(=O)CNCc6ccccc6)OC(OC6C(CNC(=O)CNCc7ccccc7)OC(OC7C(CNC(=O)CNCc8ccccc8)OC(OC8C(CNC(=O)CNCc9ccccc9)OC(OC1C(O)C2O)C(O)C8O)C(O)C7O)C(O)C6O)C(O)C5O)C(O)C4O)C(O)C3O` (centres unmarked), the “MIC SA” value against Staphylococcus aureus was more than 200 µg/mL. In addition, in the assay on Salmonella choleraesuis, the “MIC SC” value was more than 200 µg/mL. For the same compound, in the assay on Enterococcus faecium, the “MIC EF” value is more than 200 µg/mL. The “MIC EC” value against Eschericia coli was more than 200 µg/mL. Besides, the “MIC PA” value with Pseudomonas aeruginosa is more than 200 µg/mL.
`CC(C)(C)OC(=O)NCCCC[C@H](NC(=O)[C@@H](N)CCCCNC(=O)OC(C)(C)C)C(=O)NCC1OC2OC3C(CNC(=O)[C@H](CCCCNC(=O)OC(C)(C)C)NC(=O)[C@@H](N)CCCCNC(=O)OC(C)(C)C)OC(OC4C(CNC(=O)[C@H](CCCCNC(=O)OC(C)(C)C)NC(=O)[C@@H](N)CCCCNC(=O)OC(C)(C)C)OC(OC5C(CNC(=O)[C@H](CCCCNC(=O)OC(C)(C)C)NC(=O)[C@@H](N)CCCCNC(=O)OC(C)(C)C)OC(OC6C(CNC(=O)[C@H](CCCCNC(=O)OC(C)(C)C)NC(=O)[C@@H](N)CCCCNC(=O)OC(C)(C)C)OC(OC7C(CNC(=O)[C@H](CCCCNC(=O)OC(C)(C)C)NC(=O)[C@@H](N)CCCCNC(=O)OC(C)(C)C)OC(OC8C(CNC(=O)[C@H](CCCCNC(=O)OC(C)(C)C)NC(=O)[C@@H](N)CCCCNC(=O)OC(C)(C)C)OC(OC1C(O)C2O)C(O)C8O)C(O)C7O)C(O)C6O)C(O)C5O)C(O)C4O)C(O)C3O` (some centres unmarked): the “MIC SA” value against Staphylococcus aureus was more than 200 µg/mL. Also, the “MIC SC” value against Salmonella choleraesuis is more than 200 µg/mL. In the assay with Enterococcus faecium, the “MIC EF” value is more than 200 µg/mL. Moreover, the “MIC EC” value against Eschericia coli is more than 200 µg/mL. Also, the “MIC PA” value against Pseudomonas aeruginosa is more than 200 µg/mL.
Consider `OC1C2OC(CNc3nc4ccccc4[nH]3)C(OC3OC(CNc4nc5ccccc5[nH]4)C(OC4OC(CNc5nc6ccccc6[nH]5)C(OC5OC(CNc6nc7ccccc7[nH]6)C(OC6OC(CNc7nc8ccccc8[nH]7)C(OC7OC(CNc8nc9ccccc9[nH]8)C(OC8OC(CNc9nc%10ccccc%10[nH]9)C(O2)C(O)C8O)C(O)C7O)C(O)C6O)C(O)C5O)C(O)C4O)C(O)C3O)C1O` (centres unmarked), for which the “MIC SA” value in the assay on Staphylococcus aureus was more than 200 µg/mL. The “MIC SC” value against Salmonella choleraesuis is more than 200 µg/mL. For the same compound, the “MIC EF” value against Enterococcus faecium was more than 200 µg/mL. Further, in the assay with Eschericia coli, the “MIC EC” value is more than 200 µg/mL. In addition, the “MIC PA” value with Pseudomonas aeruginosa is more than 200 µg/mL.
Consider `C=CCNCC1OC2OC3C(CNCC=C)OC(OC4C(CNCC=C)OC(OC5C(CNCC=C)OC(OC6C(CNCC=C)OC(OC7C(CNCC=C)OC(OC8C(CNCC=C)OC(OC1C(O)C2O)C(O)C8O)C(O)C7O)C(O)C6O)C(O)C5O)C(O)C4O)C(O)C3O` (centres unmarked), for which, in the assay on Staphylococcus aureus, the “MIC SA” value is more than 200 µg/mL. For the same compound, the “MIC SC” value in the assay on Salmonella choleraesuis was more than 200 µg/mL. Moreover, the “MIC EF” value in the assay on Enterococcus faecium is more than 200 µg/mL. For the same compound, the “MIC EC” value in the assay on Eschericia coli is more than 200 µg/mL. The “MIC PA” value against Pseudomonas aeruginosa is more than 200 µg/mL.
For the compound `Cl.Cl.Cl.Cl.Cl.Cl.Cl.N=C(N)NCCCCSCC1OC2OC3C(CSCCCCNC(=N)N)OC(OC4C(CSCCCCNC(=N)N)OC(OC5C(CSCCCCNC(=N)N)OC(OC6C(CSCCCCNC(=N)N)OC(OC7C(CSCCCCNC(=N)N)OC(OC8C(CSCCCCNC(=N)N)OC(OC1C(O)C2O)C(O)C8O)C(O)C7O)C(O)C6O)C(O)C5O)C(O)C4O)C(O)C3O` (centres unmarked), in the assay with Staphylococcus aureus, the “MIC SA” value is more than 200 µg/mL. Besides, the “MIC SC” value against Salmonella choleraesuis is more than 200 µg/mL. For the same compound, the “MIC EF” value in the assay with Enterococcus faecium is more than 200 µg/mL. The “MIC EC” value against Eschericia coli is more than 200 µg/mL. In addition, the “MIC PA” value against Pseudomonas aeruginosa is more than 200 µg/mL.
As for `CC(C)NCC1OC2OC3C(CNC(C)C)OC(OC4C(CNC(C)C)OC(OC5C(CNC(C)C)OC(OC6C(CNC(C)C)OC(OC7C(CNC(C)C)OC(OC8C(CNC(C)C)OC(OC1C(O)C2O)C(O)C8O)C(O)C7O)C(O)C6O)C(O)C5O)C(O)C4O)C(O)C3O` (centres unmarked), in the assay on Staphylococcus aureus, the “MIC SA” value was more than 200 µg/mL. For the same compound, in the assay on Salmonella choleraesuis, the “MIC SC” value was more than 200 µg/mL. For the same compound, in the assay with Enterococcus faecium, the “MIC EF” value was more than 200 µg/mL. Besides, in the assay with Eschericia coli, the “MIC EC” value was more than 200 µg/mL. For the same compound, the “MIC PA” value against Pseudomonas aeruginosa was more than 200 µg/mL.
On to `Cl.Cl.Cl.Cl.Cl.Cl.NCCCCCCSCC1OC2OC3C(CSCCCCCCN)OC(OC4C(CSCCCCCCN)OC(OC5C(CSCCCCCCN)OC(OC6C(CSCCCCCCN)OC(OC7C(CSCCCCCCN)OC(OC1C(O)C2O)C(O)C7O)C(O)C6O)C(O)C5O)C(O)C4O)C(O)C3O` (centres unmarked), for which, in the assay on Staphylococcus aureus, the “MIC SA” value was more than 200 µg/mL. In addition, the “MIC SC” value in the assay with Salmonella choleraesuis is more than 200 µg/mL. For the same compound, in the assay with Enterococcus faecium, the “MIC EF” value is more than 200 µg/mL. Further, the “MIC EC” value against Eschericia coli was more than 200 µg/mL.
With `Cl.Cl.Cl.Cl.Cl.Cl.Cl.NCCCCCCCSCC1OC2OC3C(CSCCCCCCCN)OC(OC4C(CSCCCCCCCN)OC(OC5C(CSCCCCCCCN)OC(OC6C(CSCCCCCCCN)OC(OC7C(CSCCCCCCCN)OC(OC8C(CSCCCCCCCN)OC(OC1C(O)C2O)C(O)C8O)C(O)C7O)C(O)C6O)C(O)C5O)C(O)C4O)C(O)C3O` (centres unmarked), the “MIC SA” value against Staphylococcus aureus is more than 200 µg/mL. Also, the “MIC SC” value against Salmonella choleraesuis is more than 200 µg/mL. The “MIC EF” value with Enterococcus faecium is more than 200 µg/mL. Also, the “MIC PA” value in the assay on Pseudomonas aeruginosa is more than 200 µg/mL.
With `CC(CCN)CCSCC1OC2OC3C(CSCCC(C)CCN)OC(OC4C(CSCCC(C)CCN)OC(OC5C(CSCCC(C)CCN)OC(OC6C(CSCCC(C)CCN)OC(OC7C(CSCCC(C)CCN)OC(OC8C(CSCCC(C)CCN)OC(OC1C(O)C2O)C(O)C8O)C(O)C7O)C(O)C6O)C(O)C5O)C(O)C4O)C(O)C3O.Cl.Cl.Cl.Cl.Cl.Cl.Cl` (centres unmarked), the “MIC SA” value against Staphylococcus aureus was more than 100 µg/mL. Also, the “MIC SC” value against Salmonella choleraesuis is more than 100 µg/mL. In addition, the “MIC EF” value in the assay on Enterococcus faecium was more than 100 µg/mL. In the assay on Eschericia coli, the “MIC EC” value was more than 100 µg/mL. Besides, the “MIC PA” value against Pseudomonas aeruginosa is more than 100 µg/mL.
Take `Cl.Cl.Cl.Cl.Cl.Cl.Cl.NCCSCCCSCC1OC2OC3C(CSCCCSCCN)OC(OC4C(CSCCCSCCN)OC(OC5C(CSCCCSCCN)OC(OC6C(CSCCCSCCN)OC(OC7C(CSCCCSCCN)OC(OC8C(CSCCCSCCN)OC(OC1C(O)C2O)C(O)C8O)C(O)C7O)C(O)C6O)C(O)C5O)C(O)C4O)C(O)C3O` (centres unmarked): in the assay with Staphylococcus aureus, the “MIC SA” value is more than 200 µg/mL. Moreover, the “MIC SC” value in the assay on Salmonella choleraesuis is more than 200 µg/mL. In addition, in the assay with Enterococcus faecium, the “MIC EF” value is more than 200 µg/mL. Besides, the “MIC PA” value against Pseudomonas aeruginosa was more than 200 µg/mL.
